Data reported in patent US11607458B2 (Georgia State University Research Foundation, Inc, priority 2017, dated 2023).

Columns and labels:
[1] = HPLC studies of reaction kinetics of tetrazine prodrugs with cyclooctyne alkynes (Kobs, second-order rate constant k2); format: physicochemical; settings: for Kobs: prodrug 25 μM
In short: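 Tetrazine prodrug (25 μM) reacted with alkyne at 0.75, 1 and 1.25 mM in PBS with 10% DMSO, at room temperature or 37 °C. Prodrug HPLC peak area was sampled every 30 min and fitted to single exponential decay for kobs; k2 was taken as the slope of kobs versus alkyne concentration.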

[2] = Release of the parent drug (Dox / dansyl amine) from prodrugs treated with alkynes, monitored by HPLC; format: physicochemical; settings: alkyne 2b; r.t; PBS 10% DMSO
Method: (§1) Standard curve of Dox concentration measurement. To four HPLC vials containing 0.9 mL PBS (size: 1.5 mL) were added 25, 15, 20, 10 μL Dox stock solution (1 mM) respectively. Then defined amounts DMSO (975, 985, 980, and 990 μL) were added to each vial to afford final concentration of four vials were 25, 15, 20, 10 μM in PBS (10% DMSO), respectively. The samples were analyzed with HPLC method A. Dox retention time: 4.0 min.
as §1, with “for DA” for “of Dox”, “B. DA” for “A. Dox”, “5.8” for “4.0”
General procedures HPLC studies of reaction kinetics. To three 20-ml vials with 9 mL PBS were added a solution of tetrazine prodrug (500 μL, 500 μM). 350 μL, 300 μL and 250 μL DMSO were added to vial respectively, and then 150 μL, 200 μL and 250 μL of the alkyne solution (50 mM in DMSO) were added to the vials to afford final concentrations of alkyne 0.75 mM, 1 mM and 1.25 mM in PBS (10% DMSO, 25 μM prodrug) respectively. The reaction was stirred at r.t or 37° C. respectively. Every 30 min about 500 μL reaction mixtures were taken out and 20 μL of them were injected into the HPLC by the autosampler; the rest of them were poured back to the reaction mixture. (Note: In the cases of prodrugs 1d or 1b reacting with alkyne 2d at 37° C., the final concentrations of 2d in the kinetic studies were 250 μM, 300 μM and 350 μM).
Results. The results from the reaction kinetics studies of the tetrazine-cyclooctyne system are summarized below in Table 4. Prodrugs 1d or 1b (25 μM) were treated with alkynes 2d, 2c ,2a, or 2b at different concentrations at room temperature (r.t.) or 37° C., respectively. The prodrug consumption and release of the parent drug were monitored by HPLC (Table 4).

In the case of `COc1cccc2c1C(=O)c1c(O)c3c(c(O)c1C2=O)CC(O)(C(=O)CO)CC3OC1CC(NC(=O)c2nnc(-c3ccc(OCc4cn(CCCCCCCCC[P+](c5ccccc5)(c5ccccc5)c5ccccc5)nn4)cc3)nn2)C(O)C(C)O1` (stereo not drawn) [1c], the Kobs ([1]; 37° C., alkyne 2b 0.75 mM, Expt. 1) is reported as 0.711 h⁻¹, the Kobs ([1]; 37° C., alkyne 2b 0.75 mM, Expt. 2) is reported as 0.701 h⁻¹ and the Kobs ([1]; 37° C., alkyne 2b 0.75 mM, Expt. 3) is reported as 0.714 h⁻¹. The Kobs ([1]; 37° C., alkyne 2b 1.00 mM, Expt. 1) was 0.921 h⁻¹, the Kobs ([1]; 37° C., alkyne 2b 1.00 mM, Expt. 2) was 0.902 h⁻¹ and the Kobs ([1]; 37° C., alkyne 2b 1.00 mM, Expt. 3) was 0.871 h⁻¹. The Kobs ([1]; 37° C., alkyne 2b 1.25 mM, Expt. 1) was 1.21 h⁻¹, the Kobs ([1]; 37° C., alkyne 2b 1.25 mM, Expt. 2) was 1.15 h⁻¹ and the Kobs ([1]; 37° C., alkyne 2b 1.25 mM, Expt. 3) was 1.09 h⁻¹. The “k2 at 37° C. (second order rate constant)” value ([1]; alkyne 2b, 37° C., PBS containing 10% DMSO, n = 3) was 0.25 ± 0.05 M⁻¹ s⁻¹, the “k2 at r.t (second order rate constant)” value ([1]; alkyne 2b, r.t, PBS containing 10% DMSO, n = 3) was 0.091 ± 0.013 M⁻¹ s⁻¹ and the Kobs ([1]; r.t, alkyne 2b 0.75 mM, Expt. 1) was 0.296 h⁻¹. It also gave a Kobs ([1]; r.t, alkyne 2b 0.75 mM, Expt. 2) of 0.305 h⁻¹, a Kobs ([1]; r.t, alkyne 2b 0.75 mM, Expt. 3) of 0.291 h⁻¹ and a Kobs ([1]; r.t, alkyne 2b 1.00 mM, Expt. 1) of 0.331 h⁻¹. For the same compound, the Kobs ([1]; r.t, alkyne 2b 1.00 mM, Expt. 2) was 0.356 h⁻¹, the Kobs ([1]; r.t, alkyne 2b 1.00 mM, Expt. 3) was 0.359 h⁻¹ and the Kobs ([1]; r.t, alkyne 2b 1.25 mM, Expt. 1) was 0.445 h⁻¹. For the same compound, the Kobs ([1]; r.t, alkyne 2b 1.25 mM, Expt. 2) was 0.465 h⁻¹, the Kobs ([1]; r.t, alkyne 2b 1.25 mM, Expt. 3) was 0.474 h⁻¹ and the “Time of the Dox peak (in brackets in the Dox Peak % cell)” value [2] was 18 h.
